Source: US20230364032A1, “USE OF 2-HOBA TO TREAT ATHEROSCLEROSIS” (Vanderbilt University, priority 2020, published 2023)
Entries after “also recorded” stand apart in the source; their conditions may differ.

Assays:
MDA = assay: Plasma MDA content by TBARS assay; type: in vivo, mouse; settings: Ldlr−/− mice, western diet 16 weeks; versus 4-HOBA or vehicle
Procedure: (§1) FIG. 21A-D show the effects of 2-HOBA on plasma and LDL MDA adducts in hypercholesterolemic Ldlr^−/− mice. (20A) The MDA content in plasma from Ldlr^−/− mice consuming a Western diet for 16 weeks and treated with 2-HOBA, 4-HOBA, or vehicle was measured by TBARS Assay(*p<0.05, **p<0.01). (20B) The levels of MDA adducts were measured from LDL isolated from the Ldlr^−/− mice by ELISA. N=10 per group, ***p<0.001. (20C) LDL was isolated from control and FH subjects (n=6) pre and post LDL apheresis and the MDA adduct content was measured by ELISA. (20D) LDL was isolated from 2-HOBA, 4-HOBA, or vehicle treated hypercholesterolemic Ldlr^−/− mice. WT peritoneal macrophages were incubated for 24 hrs with the LDL and the cellular cholesterol content was measured as described in methods. (20A-D) One-way ANOVA with Bonferroni's post hoc test).

MDA-LDL = assay: MDA adducts in isolated LDL by ELISA; type: in vivo, mouse; settings: Ldlr−/− mice
Procedure: as §1
The study was approved by the Vanderbilt University Institutional Review Board (IRB), and all participants gave their written informed consent. The human blood samples from patients with severe FH, who were undergoing LDL apheresis, and healthy controls were obtained using an IRB approved protocol. HDL and LDL were prepared from serum by Lipoprotein Purification Kits (Cell BioLabs, Inc.). Sandwich ELISA was used to measure plasma MDA-LDL and MDA-HDL levels following the manufacturer's instructions (Cell BioLabs, Inc.). Briefly, isolated LDL or HDL samples and MDA-Lipoprotein standards were added onto anti-MDA coated plates, and, after blocking, the samples were incubated with biotinylated anti-apoB or anti-ApoAI primary antibody. The samples were then incubated for 1 h with streptavidin-enzyme conjugate and 15 min with substrate solution. After stopping the reaction, the O.D. was measured at 450 nm wavelength. MDA-ApoAI was detected in mouse plasma by immunoprecipitation of ApoAI and western blotting. […] Proteins were visualized and quantitated by Odyssey 3.0 Quantification software (LI-COR).

[1] = Body weight, water intake, diet consumption, mortality; type: in vivo; settings: Ldlr−/− mice, western diet 16 weeks, 1 g/L; compared to vehicle or 4-HOBA
Procedure: The body weight (FIG. 8A), water intake (FIG. 8B), and diet consumption (FIG. 8C) were measured in the Ldlr^−/− mice consuming a Western diet for 16 weeks and treated with 1 g/L 2-HOBA, 4-HOBA, or vehicle. (FIG. 8D) The plasma was pooled from hypercholesterolemic Ldlr^−/− mice (4 mice/group) that were fasted for 6 hours. Fast performance liquid chromatography (FPLC) was performed using a Superose 6 column. Total cholesterol was measured by an enzymatic assay and the average is shown for two pooled plasma samples per group of mice.
Ldlr^−/− and WT on C57BL/6 background mice were obtained from the Jackson Laboratory. Animal protocols were performed according to the regulations of Vanderbilt University's Institutional Animal Care and Usage Committee. Mice were maintained on chow or a Western-type diet containing 21% milk fat and 0.15% cholesterol (Teklad). Eight week old, female Ldlr^−/− mice on a chow diet were pretreated with vehicle alone (Water) or containing either 1 g/L of 4-HOBA or 1 g/L of 2-HOBA. 4-HOBA (as hydrochloride salt) was synthesized as previously described^21. 2-HOBA (as the acetate salt, CAS 1206675-01-5) was manufactured by TSI Co., Ltd. (Missoula, MT) and obtained from Metabolic Technologies, Inc., Ames, IA^24. A commercial production lot was used (Lot 16120312), and the purity of the commercial lot was verified to be >99% via HPLC and NMR spectroscopy^24. […]

**Q.** For `NCc1ccccc1O` [2-HOBA, 2-hydroxybenzylamine], which “plasma levels of MDA” value (MDA) is on record?
**A.** Its value is “decreased”.

**Q.** What about the “MDA content in LDL” value (MDA-LDL) of the same compound?
**A.** The value was “reduced”.

**Q.** And the “reduction of MDA adduct content in isolated LDL (ELISA)” value (MDA-LDL; compared to 4-HOBA)?
**A.** The value was 54%.

**Q.** And the “reduction of MDA adduct content in isolated LDL (ELISA)” value (MDA-LDL; compared to vehicle)?
**A.** Its value is 57%.

**Q.** What about the “body weight, water consumption, diet uptake” value [1] of the same compound?
**A.** The value was “did not affect; also recorded: does not impact”.
